Test results: patent US20210252115A1, “INHIBITION OF CATALYTIC SITE COMMON TO MULTIPLE 3 ALPHA-OXIDOREDUCTASES FOR TREATMENT OF PROSTATE CANCER” (Health Research, Inc., priority 2016, published 2021)
Entries after “also recorded” stand apart in the source; their conditions may differ.

Tests used:
LAPC-4 cells = assay: Androgen levels (LC-MS/MS) in transfected LAPC-4 cells; type: cell-based, human; conditions: for 5α-dione production after substrate treatment: 20 nM DIOL or 20 nM AND 12 h; for DHT levels after substrate treatment: 20 nM DIOL or 1 nM T 12 h, vs SFM
Method: LAPC-4 cells were plated at 1.2×10^5/well and CV-1 cells at 1×10^4/well in 6-well tissue culture plates (Corning). Media and cell pellets from two 6-well plates were combined to generate 1 media and 1 cell pellet sample for liquid chromatography-tandem mass spectrometry (LC-MS/MS) analysis. LAPC-4 cells were transfected using the Effectene Transfection Kit (Invitrogen, Grand Island, N.Y.). Forty-eight h after transfection, growth media was removed and LAPC-4 cells were washed once with Dulbecco's phosphate buffered saline (PBS, Corning). LAPC-4 cells were treated with serum-free complete media (SFM, Corning) alone or with 1 nM T, 20 nM DIOL 20 nM 5α-androstan-3α-ol-17-one (androsterone; AND) (Steraloids, Newport, R.I.) or 1 μM dutasteride (Selleckchem, Houston, Tex.) for 12 h. CV-1 cells were transfected using X-tremeGene HP transfection reagent (Roche Diagnostics Corporation, Indianapolis, Ind.). After 48 h, growth media were aspirated, CV-1 cells were washed once with PBS and incubated in SFM alone or with 20 nM AND (Steraloids) for 12 h.
After 12 h treatment, media (total 24 mL) were collected in 50 mL conical tubes (Corning). Cells were released using trypsin and collected in 15 mL conical tubes (Corning). The cells were washed 3 times using PBS, re-suspended in 1 mL PBS and 5% of the cell suspension was removed for protein concentration measurement and western blot analysis. The remaining 95% of the cell suspension was centrifuged and the supernatant was removed and discarded. Cell pellets were stored at −80° C. until analyzed using LC-MS/MS.
(§1) Cell pellet and media samples were analyzed over 9 runs for 5 androgens T, DHT, dehydroepiandrosterone, ASD and AND using a validated LC-MS/MS method. […] Study samples were quantitated using aqueous-based spiked calibration standards and pre-spiked quality control samples prepared in 2× charcoal-stripped human postmenopausal female plasma (Bioreclamation, LLC, Westbury, N.Y.).
Androgen concentrations (pmoles/mg protein) in cell lysates measured using LC-MS/MS (ng/mL) were multiplied by the total volume of the lysate (1 mL), normalized by the total amount of protein of the cell pellet (mg), divided by the molecular weight of the androgen (ng/nmole), and converted to pmoles. Media androgen concentrations (ng/mL) were multiplied by the total volume of media (24 mL), normalized against total protein of the cell culture (mg), divided by the molecular weight of the androgen (ng/nmole) and converted to pmoles. Cell pellet and media androgen concentrations were reported combined in Results and separately in Supplemental Results. Experiments were performed in triplicate.
Cell pellets were resuspended in HPLC-grade water and vortexed or sonicated to disrupt cell membranes to obtain a homogeneous suspension. Samples were extracted using 0.25 ml quality control, plasma blank or sample in 0.75-2.0 mL HPLC-grade water, 0.1 ml internal standard (IS) solution (75.0/225 pg/mL d3-T/d3-DHT) and 4 mL methyl-tert-butyl ether (MTBE, Omnisolve®, EMD Milipore, Billerica, Mass.) in glass screw-top tubes. Calibrators were prepared using 50 μl spiking solution prepared in 75% methanol and added to the extraction tube. Either the entire 1 mL cell pellet suspension was added to the extraction tube and the original container rinsed with 25% methanol in water or samples were volume and compositionally corrected. Tubes were capped with Teflon-lined caps, vortexed, rotated 15 min and centrifuged using a Sorvall model RT6000B centrifuge (Thermo Scientific) at 2,800 rpm and 4° C. for 15-30 min to separate liquid phases. The aqueous phase was frozen in a dry ice/acetone bath and MTBE layer was poured into a clean glass conical tube. MTBE was evaporated at 37° C. with nitrogen and the residue was reconstituted with 60% methanol. The suspension was centrifuged using Heraeus Multifuge X3R centrifuge (Thermo Scientific) at 2,800 rpm and 4° C. for 5 min to separate insoluble materials. An aliquot of the supernatant was injected. […]

VCaP cells = assay: Androgen levels (LC-MS/MS) in VCaP cells; type: cell-based, human; conditions: for DHT levels after substrate treatment: VCaP, 12 h in SFM with 20 nM DIOL, 20 nM AND or 1 nM T, one cell pellet per condition; for DHT levels / DHT synthesis: VCaP in SFM, 1 μM dutasteride 12 h, no substrate added
Method: FIG. 8: Intracellular T and DHT levels from VCaP cells; Related to FIG. 3. VCaP cells were treated for 12 h in SFM with or without 1 μM Dut, 1 nM T, 20 nM DIOL or 20 nM AND. VCaP cells were harvested, one cell pellet was analyzed for each condition and androgen levels were measured using LC-MS/MS as described in Methods.
(§2) Experiments were performed in triplicate.
(§3) Empty plasmid, or plasmids for over-expression of RDH16 wild-type or RDH16-Y176F, K180R, were expressed into VCaP, C4-2 or CWR-R1 cells and DHT levels were measured using LC-MS/MS. […] C4-2 cells produced measurable levels of DHT that were reduced by dutasteride treatment (p=0.001; FIG. 6C; Table 10). […] C4-2 cells that expressed RDH16-Y176, K180R produced DHT levels similar to C4-2 cells with empty plasmid.

CV-1 cells = conditions: CV-1, 20 nM AND 12 h, measurable only in the media
Method: LAPC-4 cells were plated at 1.2×10^5/well and CV-1 cells at 1×10^4/well in 6-well tissue culture plates (Corning). Media and cell pellets from two 6-well plates were combined to generate 1 media and 1 cell pellet sample for liquid chromatography-tandem mass spectrometry (LC-MS/MS) analysis. LAPC-4 cells were transfected using the Effectene Transfection Kit (Invitrogen, Grand Island, N.Y.). Forty-eight h after transfection, growth media was removed and LAPC-4 cells were washed once with Dulbecco's phosphate buffered saline (PBS, Corning). […]
After 12 h treatment, media (total 24 mL) were collected in 50 mL conical tubes (Corning). […] Cell pellets were stored at −80° C. until analyzed using LC-MS/MS.
as §1
Androgen concentrations (pmoles/mg protein) in cell lysates measured using LC-MS/MS (ng/mL) were multiplied by the total volume of the lysate (1 mL), normalized by the total amount of protein of the cell pellet (mg), divided by the molecular weight of the androgen (ng/nmole), and converted to pmoles. […]

LNCaP cells = assay: Androgen levels (LC-MS/MS) in transfected LNCaP cells; type: cell-based, human; conditions: dutasteride 12 h, cell pellet
Method: FIG. 11: Intracellular LNCaP T levels after treatment with dutasteride or SFM. Related to FIG. 6. LNCaP cells were transfected with empty plasmid, wild-type or Y176F, K180R RDH16, treated with SFM or SFM with dutasteride for 12 h and cell pellet androgen levels were measured using LC-MS/MS. T levels for LNCaP and western blot analysis for DDK tag.
as §2

[1] = CaP, background statement; cited from earlier work
CWR-R1 cells = assay: DHT levels (LC-MS/MS) in transfected CWR-R1 cells; type: cell-based, human
Method: as §2, §3

C4-2 cells = assay: DHT levels (LC-MS/MS) in transfected C4-2 cells; type: cell-based, human
Method: as §2, §3

SRD5A = assay: Tissue DHT levels (LC-MS/MS), Selenium and Finasteride Pre-Treatment Trial; type: in vivo, human; conditions: research subjects with CaP before radical prostatectomy, benign and malignant macro-dissected samples; data not shown

Question: Which “5α-dione production after substrate treatment” value (shortened to “5α-dione production”) (LAPC-4 cells; LAPC-4 with empty plasmid) does the source give for C[C@]12CC[C@@H](O)C[C@@H]1CC[C@@H]1[C@@H]2CC[C@]2(C)C(=O)CC[C@@H]12 [AND, 5α-androstan-3α-ol-17-one] here?
Answer: produced

Question: What about the “DHT levels after substrate treatment” value (VCaP cells) of the same compound?
Answer: increased

Question: And the “5α-dione production” value (CV-1 cells)?
Answer: only a small amount

Question: Which “DHT levels after substrate treatment” value (LAPC-4 cells; LAPC-4 with empty plasmid) does the source give for C[C@]12CC[C@@H](O)C[C@@H]1CC[C@@H]1[C@@H]2CC[C@]2(C)[C@@H](O)CC[C@@H]12 [DIOL, 5α-androstane-3α, 17β-diol] here?
Answer: higher

Question: And the “5α-dione production” value (LAPC-4 cells; LAPC-4 with empty plasmid)?
Answer: produced

Question: What about the “DHT levels after substrate treatment” value (VCaP cells) of the same compound?
Answer: increased

Question: Which “DHT levels after substrate treatment” value (LAPC-4 cells; LAPC-4 with empty plasmid) does the source give for C[C@]12CC[C@H]3[C@@H](CCC4=CC(=O)CC[C@@]43C)[C@@H]1CC[C@@H]2O [T, testosterone] here?
Answer: higher

Question: What about the “DHT levels after substrate treatment” value (VCaP cells) of the same compound?
Answer: not

Question: For C[C@]12C=CC(=O)N[C@@H]1CC[C@@H]1[C@@H]2CC[C@]2(C)[C@@H](C(=O)Nc3cc(C(F)(F)F)ccc3C(F)(F)F)CC[C@@H]12 [dutasteride], which T levels (LNCaP cells) is on record?
Answer: not detected

Question: And the DHT levels (LAPC-4 cells; LAPC-4 expressing mutant RDH16 or DHRS9 plus dutasteride, vs LAPC-4 treated with dutasteride alone)?
Answer: lowered further

Question: What about the DHT levels (LAPC-4 cells; LAPC-4 expressing wild-type RDH16 or DHRS9, 1 μM dutasteride 12 h vs SFM) of the same compound?
Answer: No effect

Question: What about the DHT levels (LAPC-4 cells; LAPC-4 with empty plasmid, 1 μM dutasteride 12 h vs SFM, cell pellet, p=0.041) of the same compound?
Answer: decreased; also recorded: lower

Question: And the T levels (LAPC-4 cells; all LAPC-4 cells except those expressing RDH5-Δcat, dutasteride 12 h, cell pellet)?
Answer: lowered

Question: And the “intratumoral DHT levels” value [1]?
Answer: not depleted

Question: What about the DHT levels (CWR-R1 cells; CWR-R1 expressing RDH16-Y176F, K180R, dutasteride vs SFM) of the same compound?
Answer: appeared lower

Question: And the DHT levels (CWR-R1 cells; CWR-R1 with empty plasmid or wild-type RDH16, dutasteride vs SFM)?
Answer: did not lower

Question: What about the DHT levels (C4-2 cells; C4-2 expressing wild-type RDH16, dutasteride vs SFM) of the same compound?
Answer: appeared to be reduced

Question: What about the DHT levels (C4-2 cells; C4-2 with empty plasmid, dutasteride vs SFM, p=0.001 in text) of the same compound?
Answer: reduced

Question: What about the DHT levels (VCaP cells; VCaP expressing wild-type RDH16, dutasteride vs SFM) of the same compound?
Answer: affected minimally

Question: What about the “DHT levels / DHT synthesis” value (VCaP cells) of the same compound?
Answer: did not lower

Question: And the “DHT levels / DHT synthesis” value (VCaP cells; listed as Dutasteride)?
Answer: did not impair DHT synthesis

Question: For CC(C)(C)NC(=O)[C@H]1CC[C@H]2[C@@H]3CC[C@H]4NC(=O)C=C[C@]4(C)[C@H]3CC[C@]12C [finasteride], which “CaP tissue levels of DHT” value (SRD5A) is on record?
Answer: decreased
